Test results reported in the supplement of paper PMC4862054.

How the values were obtained:
Conditions in all cases: incubation time: 72 h
[1] = tested on: BT-474; assay: drug sensitivity score (DSS), CellTox Green (DSS (AUC-based score)); higher = stronger drug effect (viability inhibition or cytotoxicity); extreme values may be limits of the assay
Summary of the method: (§1)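 A drug sensitivity score was derived from the area under each fitted dose-response curve. Breast cancer cells (20 µl suspension) were seeded onto compound in 384-well plates, using 5 concentrations 10-fold apart over a compound-specific 10,000-fold range, and incubated 72 h. Readouts were CellTox Green fluorescence and then CellTiter-Glo luminescence, with every plate normalised to 0.1 % DMSO and a positive kill control.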

[2] = tested on: BT-549; assay: as above
Summary of the method: as §1

[3] = tested on: CAL-148; assay: as above
Summary of the method: as §1

[4] = tested on: CAL-51; assay: as above
Summary of the method: as §1

[5] = tested on: CAL-85-1; assay: as above
Summary of the method: as §1

[6] = tested on: DU-4475; assay: as above
Summary of the method: as §1

[7] = tested on: HCC1143; assay: as above
Summary of the method: as §1

[8] = tested on: HCC1599; assay: as above
Summary of the method: as §1

[9] = tested on: HCC1937; assay: as above
Summary of the method: as §1

[10] = tested on: HDQ-P1; assay: as above
Summary of the method: as §1

[11] = tested on: Hs578T; assay: as above
Summary of the method: as §1

[12] = tested on: MCF-10A; assay: as above
Summary of the method: as §1

[13] = tested on: MDA-MB-231; assay: as above
Summary of the method: as §1

[14] = tested on: MDA-MB-436; assay: as above
Summary of the method: as §1

[15] = tested on: MDA-MB-453; assay: as above
Summary of the method: as §1

[16] = tested on: BT-549; assay: normalised viability (% of control), CellTiter-Blue; higher = more viable cells (about 100 = DMSO control)
Summary of the method: (§2)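 Seeded at 20 µl suspension per well onto compound-loaded 384-well plates, breast cancer cell lines were incubated 72 h. CellTiter-Blue fluorescence at 560/590 nm was then read, with each plate normalised to vehicle (100) and a positive kill control (0). Normalised viability is reported at a single listed concentration of the series.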

[17] = tested on: CAL-120; assay: as above
Summary of the method: as §2

[18] = tested on: CAL-148; assay: as above
Summary of the method: as §2

[19] = tested on: DU-4475; assay: as above
Summary of the method: as §2

[20] = tested on: Hs578T; assay: as above
Summary of the method: as §2

[21] = tested on: MDA-MB-231; assay: as above
Summary of the method: as §2

[22] = tested on: MDA-MB-453; assay: as above
Summary of the method: as §2

[23] = tested on: MDA-MB-468; assay: as above
Summary of the method: as §2

[24] = tested on: MFM-223; assay: as above
Summary of the method: as §2

[25] = tested on: MDA-MB-468; assay: drug sensitivity score (DSS), CellTox Green (DSS (AUC-based score)); higher = stronger drug effect (viability inhibition or cytotoxicity); extreme values may be limits of the assay
Summary of the method: as §1

`C=CCN(/C=C1/C(=O)O[C@H](COC)[C@@]2(C)C1=C(O)C(=O)C1=C2[C@H](OC(C)=O)C[C@]2(C)C(=O)CC[C@@H]12)CC=C` [Sonolisib] showed a drug sensitivity score [1] of 0, a drug sensitivity score [2] of 0 and a drug sensitivity score [3] of 0. It also gave a drug sensitivity score [4] of 0, a drug sensitivity score [5] of 2.28 and a drug sensitivity score [6] of 0. It also gave a drug sensitivity score [7] of 0, a drug sensitivity score [8] of 0 and a drug sensitivity score [9] of 0. It also gave a drug sensitivity score [10] of 0, a drug sensitivity score [11] of 0 and a drug sensitivity score [12] of 0. The drug sensitivity score [13] was 0, the drug sensitivity score [14] was 0 and the drug sensitivity score [15] was 0.
With `Cn1cc(C2=C(c3cn(C4CCN(Cc5ccccn5)CC4)c4ccccc34)C(=O)NC2=O)c2ccccc21` [Enzastaurin] the normalised viability ([16]; 10 nM) was 92.4%, the normalised viability ([16]; 1000 nM) was 68.9% and the normalised viability ([16]; 10000 nM) was 48.1%. It also gave a normalised viability ([17]; 10 nM) of 89.6%, a normalised viability ([17]; 1000 nM) of 95% and a normalised viability ([17]; 10000 nM) of 65.9%. For the same compound, the normalised viability ([18]; 3 nM) was 78.6%, the normalised viability ([18]; 30 nM) was 80.2% and the normalised viability ([18]; 100 nM) was 78.5%. For the same compound, the normalised viability ([19]; 3 nM) was 91.1%, the normalised viability ([19]; 30 nM) was 103% and the normalised viability ([19]; 100 nM) was 94.2%. The normalised viability ([20]; 10 nM) was 91.2%, the normalised viability ([20]; 1000 nM) was 68% and the normalised viability ([20]; 10000 nM) was 32.6%. The normalised viability ([21]; 10 nM) was 88.2%, the normalised viability ([21]; 1000 nM) was 89.6% and the normalised viability ([21]; 10000 nM) was 71.1%. The normalised viability ([22]; 3 nM) was 107%, the normalised viability ([22]; 30 nM) was 93.7% and the normalised viability ([22]; 100 nM) was 87.8%. It also gave a normalised viability ([23]; 10 nM) of 103%, a normalised viability ([23]; 1000 nM) of 107% and a normalised viability ([23]; 10000 nM) of 62.8%. For the same compound, the normalised viability ([24]; 10 nM) was 90%, the normalised viability ([24]; 1000 nM) was 65.1% and the normalised viability ([24]; 10000 nM) was 55.9%. It also gave a drug sensitivity score [1] of 0, a drug sensitivity score [2] of 0 and a drug sensitivity score [3] of 0. For the same compound, the drug sensitivity score [4] was 0, the drug sensitivity score [5] was 0 and the drug sensitivity score [6] was 0. The drug sensitivity score [7] was 0, the drug sensitivity score [8] was 0 and the drug sensitivity score [9] was 0. The drug sensitivity score [10] was 0, the drug sensitivity score [12] was 0 and the drug sensitivity score [13] was 0. The drug sensitivity score [14] was 0, the drug sensitivity score [15] was 0 and the drug sensitivity score [25] was 0.
For `CO[C@@H]1[C@H](N(C)C(=O)c2ccccc2)C[C@H]2O[C@]1(C)n1c3ccccc3c3c4c(c5c6ccccc6n2c5c31)C(=O)NC4` [Midostaurin], the normalised viability ([16]; 10 nM) was 80.4%, the normalised viability ([16]; 1000 nM) was 59.5% and the normalised viability ([16]; 10000 nM) was 18.7%. The normalised viability ([17]; 10 nM) was 126%, the normalised viability ([17]; 1000 nM) was 55.4% and the normalised viability ([17]; 10000 nM) was 44.9%. The normalised viability ([18]; 3 nM) was 115%, the normalised viability ([18]; 30 nM) was 105% and the normalised viability ([18]; 100 nM) was 129%. For the same compound, the normalised viability ([19]; 3 nM) was 94.7%, the normalised viability ([19]; 30 nM) was 92.4% and the normalised viability ([19]; 100 nM) was 101%. For the same compound, the normalised viability ([20]; 10 nM) was 129%, the normalised viability ([20]; 1000 nM) was 31% and the normalised viability ([20]; 10000 nM) was 15.6%. For the same compound, the normalised viability ([21]; 10 nM) was 92.8%, the normalised viability ([21]; 1000 nM) was 49.1% and the normalised viability ([21]; 10000 nM) was 42.4%. The normalised viability ([22]; 3 nM) was 108%, the normalised viability ([22]; 30 nM) was 92.1% and the normalised viability ([22]; 100 nM) was 87.2%. For the same compound, the normalised viability ([23]; 10 nM) was 98.5%, the normalised viability ([23]; 1000 nM) was 46.6% and the normalised viability ([23]; 10000 nM) was 41.4%. It also gave a normalised viability ([24]; 10 nM) of 96.3%, a normalised viability ([24]; 1000 nM) of 74.4% and a normalised viability ([24]; 10000 nM) of 64.2%. It also gave a drug sensitivity score [1] of 0.973, a drug sensitivity score [2] of 12.6 and a drug sensitivity score [4] of 29.9. It also gave a drug sensitivity score [5] of 0, a drug sensitivity score [6] of 0 and a drug sensitivity score [7] of 0. The drug sensitivity score [8] was 0, the drug sensitivity score [9] was 0 and the drug sensitivity score [10] was 1.96. It also gave a drug sensitivity score [11] of 11.5, a drug sensitivity score [12] of 0 and a drug sensitivity score [13] of 7.87. For the same compound, the drug sensitivity score [14] was 0, the drug sensitivity score [15] was 0 and the drug sensitivity score [25] was 17.
Compound `C=CCN(/C=C1/C(=O)O[C@H](COC)[C@@]2(C)C1=C(O)C(=O)C1=C2[C@H](OC(C)=O)C[C@]2(C)C(=O)CC[C@@H]12)CC=C` [PX-866] has a normalised viability ([16]; 10 nM) of 87.8%, a normalised viability ([16]; 1000 nM) of 81.9% and a normalised viability ([16]; 10000 nM) of 57%. It also gave a normalised viability ([17]; 10 nM) of 94.4%, a normalised viability ([17]; 1000 nM) of 85.9% and a normalised viability ([17]; 10000 nM) of 71.3%. The normalised viability ([18]; 3 nM) was 97.2%, the normalised viability ([18]; 30 nM) was 105% and the normalised viability ([18]; 100 nM) was 107%. The normalised viability ([19]; 3 nM) was 109%, the normalised viability ([19]; 30 nM) was 96.1% and the normalised viability ([19]; 100 nM) was 92.7%. It also gave a normalised viability ([20]; 10 nM) of 120%, a normalised viability ([20]; 1000 nM) of 89.4% and a normalised viability ([20]; 10000 nM) of 40.1%. It also gave a normalised viability ([21]; 10 nM) of 92.9%, a normalised viability ([21]; 1000 nM) of 72.6% and a normalised viability ([21]; 10000 nM) of 50%. For the same compound, the normalised viability ([22]; 3 nM) was 128%, the normalised viability ([22]; 30 nM) was 95.7% and the normalised viability ([22]; 100 nM) was 98.9%. For the same compound, the normalised viability ([23]; 10 nM) was 112%, the normalised viability ([23]; 1000 nM) was 62.7% and the normalised viability ([23]; 10000 nM) was 21.9%. The normalised viability ([24]; 10 nM) was 86.5%, the normalised viability ([24]; 1000 nM) was 96.9% and the normalised viability ([24]; 10000 nM) was 95.9%.
`CN(C)C(=N)NC(=N)N` [Metformin] showed a drug sensitivity score [1] of 0, a drug sensitivity score [3] of 0 and a drug sensitivity score [4] of 8.43. The drug sensitivity score [5] was 0, the drug sensitivity score [6] was 0 and the drug sensitivity score [8] was 1.75. The drug sensitivity score [9] was 0, the drug sensitivity score [10] was 0 and the drug sensitivity score [11] was 4.84. It also gave a drug sensitivity score [12] of 0, a drug sensitivity score [13] of 0 and a drug sensitivity score [14] of 0. It also gave a drug sensitivity score [15] of 0 and a drug sensitivity score [25] of 14.1.
Work on `CN[C@@H](C)C(=O)N[C@H]1CN(C(=O)CC(C)C)CC[C@H]2CC[C@@H](C(=O)NC(c3ccccc3)c3ccccc3)N2C1=O` [AT-406] yielded a drug sensitivity score [1] of 0.17, a drug sensitivity score [2] of 8.86 and a drug sensitivity score [4] of 0. The drug sensitivity score [5] was 22.9, the drug sensitivity score [6] was 0 and the drug sensitivity score [7] was 0. It also gave a drug sensitivity score [8] of 0, a drug sensitivity score [9] of 0 and a drug sensitivity score [10] of 4.26. It also gave a drug sensitivity score [11] of 0, a drug sensitivity score [12] of 0 and a drug sensitivity score [13] of 25.5. For the same compound, the drug sensitivity score [14] was 0, the drug sensitivity score [15] was 0 and the drug sensitivity score [25] was 0.
